{"source": "patent US20090318403A1", "about": "“ANTIBIOTIC COMPOSITION” (Prosensa Technologies B.V., priority 2006, published 2009)", "format_in_all_cases": "cell-based", "key": {"[1]": {"test_system": "Pseudomonas aeruginosa PA01", "experiment": "Growth inhibition (MIC, OD550 after 20 h) of P. aeruginosa PA01", "details": "for MIC of antibiotic alone: antibiotic alone (Table 1); for MIC of antibiotic: PA01, inoculum 10^4 bacteria in 20% LB, after 20 h, antibiotic alone (Table 3); for MIC: Pseudomonas aeruginosa"}, "[2]": {"test_system": "P. aeruginosa clinical isolate PA7243", "experiment": "Growth inhibition (MIC) of clinical P. aeruginosa isolate PA7243", "details": "Pseudomonas aeruginosa, isolate PA7243, 10^4 bacteria in 20% LB, 20 h"}, "[3]": {"test_system": "P. aeruginosa clinical isolate PA7247", "experiment": "Growth inhibition (MIC) of clinical P. aeruginosa isolate PA7247", "details": "Pseudomonas aeruginosa, isolate PA7247, 10^4 bacteria in 20% LB, 20 h"}, "[4]": {"test_system": "P. aeruginosa clinical isolate PA7249", "experiment": "Growth inhibition (MIC) of clinical P. aeruginosa isolate PA7249", "details": "Pseudomonas aeruginosa, isolate PA7249, 10^4 bacteria in 20% LB, 20 h"}, "[5]": {"test_system": "P. aeruginosa clinical isolate PA7252", "experiment": "Growth inhibition (MIC) of clinical P. aeruginosa isolate PA7252", "details": "Pseudomonas aeruginosa, isolate PA7252, 10^4 bacteria in 20% LB, 20 h"}, "[6]": {"test_system": "P. aeruginosa clinical isolate PA7253", "experiment": "Growth inhibition (MIC) of clinical P. aeruginosa isolate PA7253", "details": "Pseudomonas aeruginosa, isolate PA7253, 10^4 bacteria in 20% LB, 20 h"}, "[7]": {"test_system": "multidrug-resistant Acinetobacter baumannii LUH5771", "experiment": "Growth inhibition of multidrug-resistant A. baumannii LUH5771", "details": "for Susceptibility of the isolate to treatment: multi-resistant A. baumannii clinical isolate"}, "[8]": {"experiment": "Sensitizer effect of short lipoamines (our studies)", "excerpt": "R1 in formula I represents a linear or branched alkyl group comprising at least 7 atoms in a straight chain. In this context alkyl group means that it is a group containing carbon atoms. For instance, for the lipoamines butylamine, pentylamine and hexylamine as disclosed in JP 57155954 no effect was found in our studies. It is understood that if not specified otherwise, C, O, N and S atoms in the alkyl group further comprise hydrogen atoms to properly satisfy the valency of the respective atom. At least 7 atoms in a straight chain is with respect to the longest group of atoms, not including hydrogen, directly connected to one another by covalent bonds starting from the nitrogen (N) in formula I. Such a group of at least 7 atoms in a straight chain thus can be part of cyclic elements, including aromatic rings, in R1, or in other words, one or more (saturated and/or unsaturated) rings can form (part of) the alkyl group comprising at least 7 atoms in a straight chain. The alkyl group may comprise one or more O, N and/or S atoms, which means that the chain of carbon atoms may be interrupted by one or more O, N and/or S atoms. It is preferred the alkyl group comprises an ω-CH3 group, or in other words starting from the nitrogen (N) in formula I the longest alkyl group preferably ends with a CH3."}, "[9]": {"test_system": "extended β-lactamase (ESBL) producing Klebsiella pneumoniae LUH5344", "experiment": "Growth inhibition (MIC) of ESBL producing K. pneumoniae LUH5344", "details": "K. pneumoniae LUH5344, 100% LB"}, "[10]": {"test_system": "ceftazidime-resistant P. aeruginosa clinical isolate PA 24-7-3", "experiment": "Growth inhibition (MIC) of ceftazidime-resistant P. aeruginosa PA 24-7-3", "details": "Pseudomonas aeruginosa, PA 24-7-3, 20% LB"}, "[11]": {"details": "PA01, 20% LB, 20 h, sensitizer alone"}}, "note": "Where two headings read alike, the source gives them in different places.", "data": [{"compound": "CC1(C)S[C@@H]2[C@H](NC(=O)[C@H](N)c3ccccc3)C(=O)N2[C@H]1C(=O)O", "note": "[ampicillin]", "values": [{"measurement": "MIC of antibiotic alone", "setting": "[1]; PA01, 20% LB, 20 h", "value": "MIC >200 μg/mL"}, {"measurement": "MIC of antibiotic", "setting": "[1]", "value": ">200", "unit": "µg/mL"}, {"measurement": "MIC", "setting": "[2]; read-out: MIC ampicillin", "value": "> 200", "unit": "µg/mL"}, {"measurement": "MIC", "setting": "[3]; read-out: MIC ampicillin", "value": "> 200", "unit": "µg/mL"}, {"measurement": "MIC", "setting": "[4]; read-out: MIC ampicillin", "value": "> 200", "unit": "µg/mL"}, {"measurement": "MIC", "setting": "[5]; read-out: MIC ampicillin", "value": "> 200", "unit": "µg/mL"}, {"measurement": "MIC", "setting": "[6]; read-out: MIC ampicillin", "value": "> 200", "unit": "µg/mL"}, {"measurement": "Susceptibility of the isolate to treatment", "setting": "[7]", "value": "resistant"}]}, {"compound": "CCCCN", "note": "[butylamine]", "values": [{"measurement": "Sensitizer effect", "setting": "[8]", "value": "no effect"}]}, {"compound": "CC(C)(O/N=C(\\C(=O)N[C@@H]1C(=O)N2C(C(=O)[O-])=C(C[n+]3ccccc3)CS[C@H]12)c1csc(N)n1)C(=O)O", "note": "[ceftazidime]", "values": [{"measurement": "MIC", "setting": "[9]; read-out: MIC ceftazidime", "value": 6.25, "unit": "µg/mL"}, {"measurement": "MIC", "setting": "[10]; read-out: MIC ceftazidime", "value": 6.25, "unit": "µg/mL"}]}, {"compound": "CC(C)c1ccc2c(c1)CC[C@H]1[C@](C)(CN)CCC[C@]21C", "note": "[dehydroabietylamine]", "values": [{"measurement": "MIC of sensitizer alone", "setting": "[1]; [11]", "value": "MIC at ≧20 μM"}]}, {"compound": "CCCCCCN", "note": "[hexylamine]", "values": [{"measurement": "Sensitizer effect", "setting": "[8]", "value": "no effect"}]}, {"compound": "CC(=O)NC[C@H]1CN(c2ccc(N3CCOCC3)c(F)c2)C(=O)O1", "note": "[linezolid]", "values": [{"measurement": "MIC of antibiotic alone", "setting": "[1]; PA01, 20% LB, 20 h", "value": "MIC >200 ug/mL μg/mL"}]}, {"compound": "CCn1cc(C(=O)O)c(=O)c2ccc(C)nc21", "note": "[nalidixic acid]", "values": [{"measurement": "MIC of antibiotic", "setting": "[1]", "value": 25, "unit": "µg/mL"}]}, {"compound": "CCCCCCCC/C=C\\CCCCCCCCN", "note": "[oleylamine]", "values": [{"measurement": "MIC", "setting": "[1]; [11]", "value": "≥ 20", "unit": "µM"}, {"measurement": "MIC", "setting": "[2]; read-out: MIC oleylamine", "value": "> 40", "unit": "µM"}, {"measurement": "MIC", "setting": "[3]; read-out: MIC oleylamine", "value": "≥ 40", "unit": "µM"}, {"measurement": "MIC", "setting": "[4]; read-out: MIC oleylamine", "value": "> 40", "unit": "µM"}, {"measurement": "MIC", "setting": "[5]; read-out: MIC oleylamine", "value": "≥ 40", "unit": "µM"}, {"measurement": "MIC", "setting": "[6]; read-out: MIC oleylamine", "value": "> 40", "unit": "µM"}, {"measurement": "oleylamine bactericidal concentration", "setting": "[7]; A. baumannii LUH5771, oleylamine alone", "value": "at ≧5 μM"}, {"measurement": "Susceptibility of the isolate to treatment", "setting": "[7]", "value": "resistant"}, {"measurement": "MIC", "setting": "[9]; read-out: MIC oleylamine", "value": "≥ 40", "unit": "µM"}, {"measurement": "MIC", "setting": "[10]; read-out: MIC oleylamine", "value": "≥ 20", "unit": "µM"}]}, {"compound": "CCCCCN", "note": "[pentylamine]", "values": [{"measurement": "Sensitizer effect", "setting": "[8]", "value": "no effect"}]}, {"compound": "CCCCCCCCCCCCCCCCCCN", "note": "[stearylamine]", "values": [{"measurement": "MIC", "setting": "[1]; [11]", "value": "≥ 20", "unit": "µM"}]}, {"compound": "CC/C(=C(\\c1ccccc1)c1ccc(OCCN(C)C)cc1)c1ccccc1", "note": "[tamoxifen]", "values": [{"measurement": "MIC", "setting": "[1]; [11]", "value": "≥ 20", "unit": "µM"}]}, {"compound": "gentamicin", "values": [{"measurement": "MIC gentamicin", "setting": "[7]; A. baumannii LUH5771, gentamicin alone", "value": ">200", "unit": "µg·mL"}, {"measurement": "Susceptibility of the isolate to treatment", "setting": "[7]", "value": "resistant"}]}]}
